Consider 1 compound from patent US20060111335A1, “Photoactivated anti-viral and anti-cancer agent” (priority 2002, published 2006).

In data set [1] the test system is CT DNA. As to the kind of experiment: Dark interaction of DPPZPHEN with CT DNA, UV-Vis absorption titration at 380 nm. The format is binding, calf. To be noted: CT DNA, from molar extinction coefficient at 380 nm. As for the experimental part:
(§1) General. The quantity of DNA was determined by the Burton assay (Burton, Biochem. J., 62:315-322 (1956)), and its rhodium content was quantitated using flame atomic absorption spectroscopy (AA). The equilibrium constant for interaction between DPPZPHEN and CT-DNA in the dark was calculated from UV-Vis absorption titration measurements at 380 nm (Wolfe et al., Biochem., 26:6392-6396 (1987); Schemel et al., Biopolymers, 10:465-480 (1971)). Cell viability was determined using the MTT assay (Denizot et al., J. Immunol. Methods, 89:271-277 (1986)). SINV was purified on sucrose gradients as previously described (Owen et al., J. Virol., 70:2757-2763 (1996)). The titer was generally 7-8 log10 pfu/mL at the beginning of each experiment.
Interaction of DPPZPHEN with DNA. […] An intrinsic binding constant of […] 3.4×10^5 M^−1 was calculated using the molar extinction coefficient at the λmax (380 nm) at each titration point.

Data set [2] concerns CT DNA. The data set can be described thus: Photolysis with calf thymus DNA: rhodium covalently bound to DNA. The format is binding. To be noted: irradiation >330 nm. On the procedure:
as §1, with “(1996)).” for “(1996)). The titer was generally 7-8 log10 pfu/mL at the beginning of each experiment.”
Photolysis with Calf Thymus DNA (CT DNA). Solutions consisting of 1 mL aliquots of 0.58 mM DPPZPHEN and 2.7 mg/mL CT DNA were irradiated with λ>330 nm light. After irradiation, the solutions were purified by exhaustive dialysis and three cycles of precipitation and resuspension. The DNA and Rh content were determined and/or the DNA was utilized in size exclusion chromatography experiments (Mahnken et al., J. Am. Chem. Soc., 114:9253-9265 (1992)).

The test system of the next data set is GN4 cells. The data set can be described thus: Phototoxicity to GN4 tumor cells, MTT assay. The format is cell-based, canine. To be noted: dark, zero time point. On the procedure: Photolysis with Tumor Cells.
Media was decanted from the flask. […] Trypsin-EDTA was then decanted and the flask was incubated at 37° C. for 8 minutes. […] Released cells were suspended in 5 mL of media and shaken well. […] The remaining cells were discarded.
Cells were plated, incubated with the drug, and photolysis was conducted as for the KB cell lines.
On the technique in general: Tetrazolium assays rely on reduction of a dye to a coloured formazan, in cell work by metabolically active cells.

The next data set relates to cell membrane. The data set can be described thus: Cell uptake / passage through the cell membrane. As for the experimental part:
OCTBP uptake by KB cells. 11 mg of OCTBP was dissolved in 40 mL of PBS buffer. The solution was vortex stirred for 5 minutes to completely dissolve the solid. The solution was sterile filtered through a 0.2μ nylon syringe filter. The concentration of the solution was determined by measuring the UV absorption at 353 nm (ε353nm=1565 M^−1cm^−1).
Once the cells were 75% confluent media was decanted from the flasks and 8 mL of drug solutions were added to three flasks and 8 mL of PBS buffer solution was added to the control flask. The flasks were incubated at 37° C. for 15, 30 and 45 minutes. Control flask was incubated for 45 minutes. When the flasks were removed, they were washed with 6×10 mL of PBS buffer solution. All the liquid was carefully decanted from the flasks. 1 mL of lysing buffer (1% triton X-100) was added to each of the four flasks. The walls of the flasks were rinsed using disposable pipettes. Once all the contents of the flasks were placed into a 1.5 mL disposable centrifuge tubes (each flask yielded ˜1.2 mL), the tubes were centrifuged at 6000 rpm and at 4° C. for 30 minutes on the Fisher Model 59V high-speed centrifuge. BCA Assay was done to establish the amount of cells in each flask.
Rh content of each flask was determined using an inductively coupled plasma (ICP) instrument (AtomScan16, Thermo Elemental, Franklin, Mass.). From each centrifuge tube 1 mL was pipetted and 370 μL of concentrated HCl was added to form a 10% solution. The samples were heated in a hot water bath at 70° C. for 30 minutes. The samples were centrifuged again and the supernatant liquid was diluted to 8 mL by adding nano-pure water. The samples were analyzed for Rh content by ICP.

Data set [3] in a line: Reversed phase HPLC elution on C8 column as measure of hydrophobicity. The format is physicochemical. Particulars: 45% acetonitrile in 100 mM ammonium acetate pH 5.4. As for the experimental part:
Reversed phase high performance liquid chromatography (RP-HPLC) was carried out on C8 columns. Compounds were tested using 20%, 30% and 45% acetonitrile in 100 mM ammonium acetate at pH 5.4 for elution on a C8 column, with the intention of achieving an elution time of about 15 minutes. It was expected that the more hydrophobic a compound, the higher the acetonitrile content one would need for the eluent.

The test system of another data set is cells. As to the kind of experiment: Phototoxicity, summary statement of Example XII. It counts as cell-based.
The next data set has as its system KB cells. As to the kind of experiment: Phototoxicity to KB tumor cells, MTT assay. To be noted: dark, zero time point.

Experimental for KB cells: Photolysis with Tumor Cells. […] At the beginning of an experiment media was removed from all plates and the cells were washed with 1 mL of PBS or Hank's salt solution. Drug solution (2 mL) or buffer solution (2 mL) was added to each dish. […] Cells were incubated, with or without metal complex, for 4 hours. After incubation, the solutions were removed from the dishes and the dishes were washed with 1 mL of PBS or Hank's salt solution. A fresh 1 mL of PBS or Hank's salt solution was added to each dish and these were placed on a turntable that sat on the top part of the photolysis chamber. […] The plates were then incubated for 40-48 hours before a determination of the extent of cell toxicity by MTT assay.
Cells were incubated in 75 cm^2 culture flasks. They were grown in Dulbecco's Modified Eagles Medium (D-MEM) supplemented with 10% heat inactivated fetal bovine serum (FBS), 1% L-glutamine-penicillin-streptomycin and 1% amphotericin-B. When cells were not plated for use in an experiment, they were transferred when they were 75-100% confluent using the following procedure. Media was decanted from the flask. Cells were rinsed 1-2 times with 10 mL of Hank's Balanced salt solution. […] Trypsin-EDTA was then decanted and the cells were released from the wall of the flask by tapping the side of the flask. Released cells were suspended in 5 mL media and 1 mL of this suspension was placed in a new culture flasks containing 20 mL of fresh media. The remaining cells were discarded. A culture flask can be used for 3 transfers.
Usually 16-24 hours before a photolysis experiment, cells were plated in 35×10 mm tissue culture dishes and incubated at 37° C. until the experiment was begun. Cells were about 75-100% confluent in the 75 cm^2 culture flask when plated. After being washed and released from the flask as described above, cells were suspended in 40 mL media and 1.5 mL of suspension was placed in each dish.
The concentration of the solution was 70 μM.
The cell dishes were incubated with drug or Hanks balanced salt solution (1 mL) for 3 hours. After incubation, solutions were decanted from the plates and 1 mL of Hank's Balanced salt solution were placed in each. […] Following photolysis, Hank's Balanced salt solutions were decanted and 1 mL of fresh media was placed in each plate.
Plates were incubated for 65 hours and then analyzed for cell survival by MT assay. 5 mg/mL MTT solution in water was prepared and 100 μL of this solution was added to each plate and the plates were incubated for 1.5 hours. Purple crystals formed from live cells. Media was gently removed from plates using a Pasteur pipette, the purple crystals that remained at the bottom of the dish were dissolved in 6 mL of isopropanol.
Phototoxicity studies with long wavelength light (>400 nm). […]

Take `[Cl-].[Cl][Rh+]12([Cl])([N]3C=CC=c4ccc5c(c43)[N]1C=CC=5)[N]1C=CC=c3c1c1c(c4nc5ccccc5nc34)=CC=C[N]12` [DPPZPHEN, cis-dichloro(dipyrido[3,2a-2′3′c]phenazine)(1,10-phenantroline) rhodium(III) chloride]: the “intrinsic binding constant (Keq, association constant with DNA)” value in the data set on CT DNA [1] stood at 340000 M⁻¹. Further, the “bases per bound molecule of Rh” value in the data set with CT DNA [2] is on record as ~18 bases. The “cell toxicity in the absence of light” value in the data set with GN4 cells and in the data set with KB cells was “no appreciable degree of cell toxicity” each time. Also, the “ability to pass through the cell membrane” value with cell membrane is “able to pass through the cell membrane”. Moreover, the elution time entry in data set [3] is reported as “about 15 minutes”. Besides, the phototoxicity result in the data set with cells is reported as “are phototoxic”.
